Assay results published in ChEMBL document CHEMBL1201862, “PubChem BioAssay data set” (2004).
The source made the active and inactive calls.

Experiments:
[1] = target: T1, Carboxy-terminal domain RNA polymerase II polypeptide A small phosphatase 1 (Homo sapiens, UniProt Q9GZU7); test: CTDSP1 inhibitors, concentration-response, biochemical, absorbance readout, ultra-high-throughput screen actives (AID 540297); type: functional
T1 sequence (Q9GZU7 whole entry): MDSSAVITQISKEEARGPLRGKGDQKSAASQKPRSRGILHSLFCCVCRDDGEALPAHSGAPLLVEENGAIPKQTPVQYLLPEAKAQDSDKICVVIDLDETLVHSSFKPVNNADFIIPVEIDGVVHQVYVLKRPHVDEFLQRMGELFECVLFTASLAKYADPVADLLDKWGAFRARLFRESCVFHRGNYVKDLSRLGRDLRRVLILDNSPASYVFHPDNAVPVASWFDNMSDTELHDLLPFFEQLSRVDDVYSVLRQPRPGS

[2] = target: T2, Histone-lysine N-methyltransferase NSD2 (Homo sapiens, UniProt O96028); type: biochemical
T2 sequence (O96028 whole entry): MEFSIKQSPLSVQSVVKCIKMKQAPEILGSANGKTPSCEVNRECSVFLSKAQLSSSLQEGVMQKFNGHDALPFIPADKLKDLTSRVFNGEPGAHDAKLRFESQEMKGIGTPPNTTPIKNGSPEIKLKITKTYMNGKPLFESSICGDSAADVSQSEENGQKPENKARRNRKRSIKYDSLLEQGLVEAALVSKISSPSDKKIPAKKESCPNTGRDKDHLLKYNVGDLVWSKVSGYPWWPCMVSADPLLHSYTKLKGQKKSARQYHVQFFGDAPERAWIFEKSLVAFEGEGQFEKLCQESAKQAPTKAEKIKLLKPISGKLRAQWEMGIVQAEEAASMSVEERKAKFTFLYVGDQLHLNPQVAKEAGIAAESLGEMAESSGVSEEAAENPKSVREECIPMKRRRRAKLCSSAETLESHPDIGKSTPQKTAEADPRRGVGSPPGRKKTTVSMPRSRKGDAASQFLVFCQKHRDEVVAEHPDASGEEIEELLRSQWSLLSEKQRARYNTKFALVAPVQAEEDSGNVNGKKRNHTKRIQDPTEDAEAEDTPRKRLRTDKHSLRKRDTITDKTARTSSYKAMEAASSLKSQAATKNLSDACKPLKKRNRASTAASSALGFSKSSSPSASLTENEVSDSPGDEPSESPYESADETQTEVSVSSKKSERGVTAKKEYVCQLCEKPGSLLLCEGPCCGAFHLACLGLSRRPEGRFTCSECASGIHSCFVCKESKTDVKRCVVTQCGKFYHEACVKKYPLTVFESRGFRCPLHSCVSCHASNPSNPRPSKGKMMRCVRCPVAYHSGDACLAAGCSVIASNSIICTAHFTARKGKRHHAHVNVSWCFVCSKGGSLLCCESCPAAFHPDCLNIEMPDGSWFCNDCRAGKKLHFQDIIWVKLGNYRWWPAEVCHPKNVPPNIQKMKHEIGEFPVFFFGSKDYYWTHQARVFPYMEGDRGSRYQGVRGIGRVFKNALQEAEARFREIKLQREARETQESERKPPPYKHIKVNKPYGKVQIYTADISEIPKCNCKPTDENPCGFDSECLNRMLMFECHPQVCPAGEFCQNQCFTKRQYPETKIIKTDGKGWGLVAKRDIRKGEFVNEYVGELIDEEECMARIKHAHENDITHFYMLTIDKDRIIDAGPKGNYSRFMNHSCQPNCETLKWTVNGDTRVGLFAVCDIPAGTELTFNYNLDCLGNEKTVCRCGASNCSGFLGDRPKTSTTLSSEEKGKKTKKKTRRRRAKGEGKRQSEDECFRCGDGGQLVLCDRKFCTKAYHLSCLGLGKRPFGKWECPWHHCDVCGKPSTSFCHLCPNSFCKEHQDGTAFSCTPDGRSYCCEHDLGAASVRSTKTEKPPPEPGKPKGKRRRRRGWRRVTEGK

[3] = target: T3, RNA-binding protein pos-1 (Caenorhabditis elegans, UniProt G5EF15); test: disruptors of C. elegans POS-1 RNA interaction – biochemical, fluorescence polarization, dose response (AID 1964);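 also: purified POS-1 fused to maltose binding protein made in E. coli; potency of compounds blocking POS-1 binding to fluorescent RNA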
T3 sequence (G5EF15 whole entry): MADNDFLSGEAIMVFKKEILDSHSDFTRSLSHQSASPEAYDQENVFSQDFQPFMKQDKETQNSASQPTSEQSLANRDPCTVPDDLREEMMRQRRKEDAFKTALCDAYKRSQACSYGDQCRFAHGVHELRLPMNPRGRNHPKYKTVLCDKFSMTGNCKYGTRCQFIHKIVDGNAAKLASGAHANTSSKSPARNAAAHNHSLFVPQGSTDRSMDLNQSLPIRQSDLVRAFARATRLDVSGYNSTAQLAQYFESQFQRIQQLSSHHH

[4] = target: T4, Zinc finger protein mex-5 (Caenorhabditis elegans, UniProt Q9XUB2); test: potency of MEX-5 RNA-binding blockers – biochemical, C. elegans, fluorescence polarization, dose response (AID 1960)
T4 sequence (Q9XUB2 whole entry): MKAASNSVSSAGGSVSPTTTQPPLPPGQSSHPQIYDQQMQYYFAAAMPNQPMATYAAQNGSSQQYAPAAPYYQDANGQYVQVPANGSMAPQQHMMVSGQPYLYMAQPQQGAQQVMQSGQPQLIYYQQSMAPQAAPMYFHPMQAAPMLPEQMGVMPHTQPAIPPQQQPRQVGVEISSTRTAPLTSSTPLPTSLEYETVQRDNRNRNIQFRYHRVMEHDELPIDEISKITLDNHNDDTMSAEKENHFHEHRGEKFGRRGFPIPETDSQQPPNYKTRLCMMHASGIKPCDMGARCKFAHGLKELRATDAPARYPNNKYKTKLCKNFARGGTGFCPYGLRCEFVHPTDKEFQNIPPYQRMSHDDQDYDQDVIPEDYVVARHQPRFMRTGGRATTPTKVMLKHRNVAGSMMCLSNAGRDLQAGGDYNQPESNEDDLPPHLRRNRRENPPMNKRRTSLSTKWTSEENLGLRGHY

[5] = target: T5, Microphthalmia-associated transcription factor (Homo sapiens, UniProt O75030); test: reducers of TRPM1 reporter luminescence, concentration series – cell-based, SK-MEL-5, cherry-picked, set 3, MITF inhibitor project, dose response (AID 493073); type: functional;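 also: SK-MEL-5 melanoma cells with luciferase driven by the MITF target TRPM1 promoter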
T5 sequence (O75030 whole entry): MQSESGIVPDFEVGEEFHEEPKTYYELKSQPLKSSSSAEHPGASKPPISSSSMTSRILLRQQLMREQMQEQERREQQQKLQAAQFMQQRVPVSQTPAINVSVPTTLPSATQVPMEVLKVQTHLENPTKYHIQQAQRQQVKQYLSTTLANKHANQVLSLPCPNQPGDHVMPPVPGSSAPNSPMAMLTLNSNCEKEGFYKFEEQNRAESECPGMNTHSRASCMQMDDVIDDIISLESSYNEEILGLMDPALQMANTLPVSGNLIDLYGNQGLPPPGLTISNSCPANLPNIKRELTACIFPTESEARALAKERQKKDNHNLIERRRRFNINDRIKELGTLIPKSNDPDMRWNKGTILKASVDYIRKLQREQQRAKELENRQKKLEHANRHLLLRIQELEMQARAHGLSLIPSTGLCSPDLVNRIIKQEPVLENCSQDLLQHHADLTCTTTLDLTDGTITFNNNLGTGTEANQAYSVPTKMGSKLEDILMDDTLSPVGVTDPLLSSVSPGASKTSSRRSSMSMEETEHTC

cells = type: functional
[6] = target: Heat shock protein HSP 90-alpha (Homo sapiens, UniProt P07900); type: functional, organism-based
Genome polyprotein = Genome polyprotein (dengue virus type 2, UniProt P29990); test: flavivirus cap methylation enzyme inhibition – biochemical, confirmation dose response, primary screen (AID 588689); type: functional
Sequence of Genome polyprotein (P29990 2492-3391 limits assumed): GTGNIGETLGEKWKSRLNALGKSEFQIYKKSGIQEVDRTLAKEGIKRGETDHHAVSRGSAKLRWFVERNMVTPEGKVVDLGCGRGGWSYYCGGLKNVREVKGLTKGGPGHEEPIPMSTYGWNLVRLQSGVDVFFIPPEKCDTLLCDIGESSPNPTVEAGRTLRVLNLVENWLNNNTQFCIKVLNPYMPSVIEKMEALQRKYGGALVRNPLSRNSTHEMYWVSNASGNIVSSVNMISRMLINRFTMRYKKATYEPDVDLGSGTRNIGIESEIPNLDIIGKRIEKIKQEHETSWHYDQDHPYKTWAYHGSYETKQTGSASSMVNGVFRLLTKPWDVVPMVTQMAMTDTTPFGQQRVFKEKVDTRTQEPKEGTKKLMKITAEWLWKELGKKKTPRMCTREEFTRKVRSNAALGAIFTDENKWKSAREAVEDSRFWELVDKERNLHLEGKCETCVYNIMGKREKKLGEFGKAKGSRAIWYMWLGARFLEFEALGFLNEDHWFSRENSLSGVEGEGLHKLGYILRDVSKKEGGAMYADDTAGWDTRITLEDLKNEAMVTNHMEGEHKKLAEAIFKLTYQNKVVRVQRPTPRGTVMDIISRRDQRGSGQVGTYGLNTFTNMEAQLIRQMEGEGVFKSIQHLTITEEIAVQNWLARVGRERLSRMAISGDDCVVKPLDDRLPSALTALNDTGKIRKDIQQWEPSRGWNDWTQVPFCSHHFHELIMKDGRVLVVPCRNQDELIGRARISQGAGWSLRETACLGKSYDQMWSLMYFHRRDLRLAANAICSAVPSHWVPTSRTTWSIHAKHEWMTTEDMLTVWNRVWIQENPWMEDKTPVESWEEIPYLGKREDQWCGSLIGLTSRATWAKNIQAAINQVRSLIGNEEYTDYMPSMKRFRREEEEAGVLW

[7] = blockers of HIV-1 envelope-mediated cell-cell fusion – cherry-pick, dose response (AID 652057); type: functional, cell-based
[8] = off-target signal loss in HeLa-CEM21 co-culture – HeLa F-luc CTL cells, cherry-picked, counter-screen for HIV-1 Env fusion inhibitor project, dose response (AID 652040); type: functional, cell-based;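 also: potency for signal decrease marking cytotoxic or nonspecific inhibition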
[9] = Luminescence Cell-Based Dose Retest to Confirm Inhibitors of Cancer Stem Cells. [Related pubchem assays (depositor defined):AID2717, AID2721]; type: functional; conditions: Homo sapiens
[10] = blockers of HIV-1 ZM109 envelope-driven cell-cell fusion – HeLa effector, CEM target cells, luciferase, cherry-pick, dose response (AID 652058); type: functional, cell-based;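 also: luciferase signal from HIV-1 Env mediated cell-cell fusion of effector and target cells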
[11] = HIV-1 AD8 envelope cell-cell fusion blockers – cherry-pick, dose response (AID 652062); type: functional, cell-based;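 also: luciferase signal from cell-cell fusion driven by HIV-1 clade B AD8 Env; potency is for inhibitors of fusion seen as a drop in luminescence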
Paired box protein Pax-8 = Paired box protein Pax-8 (Homo sapiens, UniProt Q06710); test: PAX8 transcriptional activity inhibition in RMG-I – RMG-I cells, luciferase, cherry-pick, dose response (AID 687027); type: functional, cell-based;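 also: luciferase reporter driven by Pax8 target thyroperoxidase promoter measured by SteadyGlo luminescence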
Sequence of Paired box protein Pax-8 (Q06710 whole entry): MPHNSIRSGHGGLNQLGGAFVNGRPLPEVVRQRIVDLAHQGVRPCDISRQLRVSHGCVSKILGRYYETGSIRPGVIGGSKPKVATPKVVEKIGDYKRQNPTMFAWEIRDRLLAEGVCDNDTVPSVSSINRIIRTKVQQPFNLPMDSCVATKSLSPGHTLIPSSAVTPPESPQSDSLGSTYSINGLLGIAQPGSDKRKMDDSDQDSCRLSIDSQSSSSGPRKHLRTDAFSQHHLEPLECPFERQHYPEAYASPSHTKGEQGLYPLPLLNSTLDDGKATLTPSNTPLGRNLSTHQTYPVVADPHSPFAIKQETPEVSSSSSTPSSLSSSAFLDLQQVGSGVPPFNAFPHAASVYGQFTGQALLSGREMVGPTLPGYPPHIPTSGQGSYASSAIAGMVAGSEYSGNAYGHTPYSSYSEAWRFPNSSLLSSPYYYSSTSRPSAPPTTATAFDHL

P388/ADR = test: cells; type: functional; conditions: Mus musculus
SN12K1 = test: cells; type: functional; conditions: Homo sapiens

CC(=O)Nc1ccc(NC(=O)CSc2nc(N)c(NC(=O)c3ccccc3F)c(=O)[nH]2)cc1
IC50 [1]: 11.9 µM (active)

CNCCCc1ccccc1
AC50 [2]: > 20 µM (inactive)

Fc1cc(F)cc(-c2c(-c3ccccc3)ncc3ccc(F)cc23)c1
IC50 [1]: 8.88 µM (active)

CN(C)C(=O)COC(=O)c1ccc(S(=O)(=O)NCc2ccco2)cc1
IC50 [1]: 6.65 µM (active)

CCCN(CCC)CCNC(=O)c1cc2c(-c3ccccc3F)nn(C)c2s1
AC50 [2]: > 20 µM (inactive)

O=C1NC(=O)N(c2ccc(F)cc2)C(=O)/C1=C/Nc1ccccc1N1CCCC1
EC50 [3]: 76.7 µM (active)
EC50 [4]: 103 µM (active)

O=C(c1ccc([N+](=O)[O-])s1)N1CCCc2ccccc21
AC50 [5]: 11.2 µM (active)

O=C(CCCOc1ccccc1)OCn1nnc2ccccc2c1=O
IC50 (cells): 3.55 µM (active)

Cc1ccc(N2C(=O)C3C4C=CC(CN=C(S)N5CCN(c6cccc(C)c6)C(C)C5)(O4)C3C2=O)cc1 (configuration not stated)
AC50 [6]: 8.5 µM (active)

Cc1ccccc1NC(=O)/C(C#N)=C\c1cc(C)n(-c2ccc(C(=O)O)cc2)c1C
EC50 [3]: > 300 µM (not active)
EC50 [4]: > 300 µM (not active)

CC(C)OP(=O)(OC(C)C)C1(NS(=O)(=O)c2ccc(Cl)cc2)C=C(Cl)C(=O)C(Cl)=C1
IC50 (Genome polyprotein): 99.3 µM (active)

COc1ccc(/C=C(\C#N)C(=O)Nc2ccc3[nH]c(O)nc3c2)cc1
IC50 [1]: 3.26 µM (active)

CN1CCN(C(=O)c2cc(COc3c(F)cccc3F)on2)CC1c1ccccc1 (configuration not stated)
AC50 [6]: 0.566 µM (active)

O=C(Nc1ccc(Cl)cn1)C1CCCN1S(=O)(=O)c1cccc2ccccc12 (configuration not stated)
AC50 [7]: 29.8 µM (active)
AC50 [8]: 53.6 µM (active)

O=C(/C=C/c1ccccc1[N+](=O)[O-])c1ccccc1Br
AC50 [9]: 7.14 µM (active)
AC50 [6]: 4.37 µM (active)

O=C(CN1CCN(S(=O)(=O)c2ccc(Cl)cc2)CC1)c1ccc(O)c(O)c1
AC50 [2]: 4.91 µM (active)

COc1cccc(NC(=O)C(=O)c2cn(CC(=O)N3CCOCC3)c3ccccc23)c1
EC50 [3]: > 300 µM (not active)
EC50 [4]: > 300 µM (not active)

COCCN(C(=O)c1cc(-c2ccco2)nc2ccccc12)c1c(N)n(Cc2ccccc2)c(=O)[nH]c1=O
IC50 [1]: 6.59 µM (active)

CCOC(=O)C1CCCN(C2CC(=O)N(c3cccc(C(F)(F)F)c3)C2=O)C1 (configuration not stated)
AC50 [6]: 7.53 µM (active)

CCN1CCN(C(=O)c2ccc3c(=O)n(Cc4ccccc4OC)c(=S)[nH]c3c2)CC1
EC50 [3]: > 300 µM (not active)
EC50 [4]: > 300 µM (not active)

O=C(OCc1nnc(-c2ccccc2)o1)c1ccc(Br)o1
IC50 (cells): 20.1 µM (active)

CCN(C[C@H]1N[C@@](CC)(C(=O)OC)[C@H]2C(=O)N(Cc3ccccc3)C(=O)[C@@H]12)S(=O)(=O)c1ccc(C(F)(F)F)cc1
AC50 [7]: 1.3 µM (active)
AC50 [10]: 1.3 µM (active)
AC50 [8]: 1.79 µM (active)
AC50 [11]: 2.16 µM (active)

O=C(CN(c1cc(C(F)(F)F)ccc1Cl)S(=O)(=O)c1ccccc1)NCc1cccnc1
AC50 [7]: 1.98 µM (active)
AC50 [10]: 3.01 µM (active)
AC50 [8]: 3.81 µM (active)
AC50 [11]: 5.21 µM (active)

CCC(C)(C)NC(=O)C(c1ccc(C)cc1)N(CC1CCCO1)C(=O)c1csnn1 (configuration not stated)
AC50 [7]: 4.81 µM (active)
AC50 [10]: 2.82 µM (active)
AC50 [8]: 6.84 µM (active)
AC50 [11]: 7.81 µM (active)

COC(=O)[C@@]1(Cc2ccccc2)[C@H]2C(=O)N(Cc3ccccc3)C(=O)[C@H]2[C@H]2CN=C(SCc3ccc(C#N)cc3)N21
AC50 [7]: 2.07 µM (active)
AC50 [10]: 3.83 µM (active)
AC50 [8]: 4.57 µM (active)
AC50 [11]: 4.69 µM (active)

COc1ccc([C@@H]2[C@@H]3C(=O)N(C(C)(C)C)C(=O)[C@@H]3[C@]3(CC(C)C)C(=O)N(c4cccc(F)c4)C(=O)N23)cc1
AC50 [7]: < 0.26 µM (active)
AC50 [10]: < 0.26 µM (active)
AC50 [8]: < 0.26 µM (active)
AC50 [11]: < 0.26 µM (active)

N#CC1C(=O)Nc2cccnc21 (configuration not stated)
AC50 [2]: > 20 µM (inactive)

O=C(C[C@H]1CC[C@H]2[C@@H](COC[C@@H](O)CN2Cc2ccc(F)cc2)O1)NCc1ccccc1Cl
AC50 (Paired box protein Pax-8): 23.7 µM (active)

O=C(Cn1cc(/C=N/NC(=O)c2cccc(C(F)(F)F)c2)c2ccccc21)Nc1ccc(F)cc1
IC50 [1]: 4.23 µM (active)

Nc1cc2[nH]cnc2c(=O)[nH]1 [DEZAGUANINE]
GI50 (P388/ADR): 10.2 µM (inactive)
GI50 (SN12K1): 13.8 µM (inactive)
